Experimental data: patent publication US12521393B2, “Cytotoxicity targeting chimeras for CCR2-expressing cells” (GLAXOSMITHKLINE INTELLECTUAL PROPERTY DEVELOPMENT LIMITED, priority 2021, dated 2026)

Columns and labels:
[1] = test system: CCR2 expressing cells (CD11b+Ly6c+Hi) in peripheral blood; experiment: In vivo depletion assay, flow cytometry of peripheral blood (Example 201); design: species or system human CCR2 knock-in mice (C57 background); conditions: hCCR2 knock-in mice, IV 0.1 mpk compound + 10 mpk anti-cotinine antibody (SEQ ID NO: 13/14), peripheral blood at 48 hr
Method: Stock solution preparation. Stock solutions of compounds of Formula (I) were prepared at 20 mg/mL and 100 mg/mL in […] for PK/PD and dose tolerability studies respectively. Stock solutions were stored at […] until further usage. on the day of experiment, the stock Solution of the compound of Formula (I) was removed from storage at […] and thawed at room temperature. Anti-cotinine antibody having a heavy chain sequence of SEC ID NO: 13 and a light chain sequence of SEQ ID NO: 14 (rabbit variable region sequence with mouse IgG2a Fc domain), if required was removed from storage at −80° C. and thawed at room temperature. Antibody vials were immediately transferred into wet ice after thawing. Compounds of Formula (I) were further diluted in DMSO as per experimental requirements.
The formulation composition was Saline: DMSI: PBS.
Saline was added based on the quantity required and then stock solution of the compound of Formula (I) prepared in DMSO, followed by addition of antibody in PBS. Formulations were incubated at room temperature for 30 minutes before administration to the mouse. DMSO was used at 1 to % (v/v) in the final formulation.
After bleeding, each mouse was sacrificed by cervical dislocation. […] Flow Cytometry Analysis:
CCR2 depletion in peripheral blood was determined by flow cytometry. Briefly, peripheral blood was collected from all animals at the end of study termination and processed. Blood samples were lysed using 1×RBC Lysis buffer and the resulting cell pellet was washed twice in FACS buffer (HBSS containing 5% FBS). Cells were subjected to Fc blocking using mouse Fc block from Biolegend (Trustain, anti-mouse CD16/32, Cat: 101319) to block non-specific binding followed by surface staining for immune markers (CD45, CD3, CD11 b, Ly6C, human CCR2). Surface staining was done for 30 minutes in ice and cells were washed twice to remove unbound antibodies. Cells were stained with 7AAD to determine viability and acquired on BD FACSVerse flow cytometer. Appropriate FMO controls and single-color controls were included in the experiment for gating and compensation respectively.
Percent depletion of CD11 b+Ly6c+Hi cells and CCR2 expression for the different treatment groups was determined.

[2] = biological target: human alpha1 nicotinic acetylcholine (nACh) receptor (Homo sapiens, UniProt P02708); experiment: Nicotinic acetylcholine receptor antagonism assay, IONFlux automated patch clamp (Example 203); assay type: cell-based; conditions: for IC50: antagonism of ACh-stimulated human alpha1 nAChR current, patch clamp; for Emax at 100 µM: maximum percentage antagonism at maximum concentration tested 100 μM; for Emax at 100 µM / Emax at 10 µM: read-out: Maximum Response; for Emax at 10 µM: maximum percentage antagonism at maximum concentration tested 10 μM
Method: Cells expressing human alpha1 nicotinic acetylcholine (nACh) receptor (nAChR) were washed and dissociated using Trypsin containing buffer. Cells were then washed and seeded at a density of 3-5 million cells/mL and allowed to grow for 3 days. Then, 60-80 μL of cells were added to plates and incubated with dose response of an ARM compound of Formula (I) with a top concentration of either 10 μM or 100 μM. The receptor was then stimulated via addition of acetylcholine (ACh) and activation of the receptor was monitored via the IONFlux automated patch clamp system. IonFlux Data Analyzer software was utilized to perform leak subtraction and measure (min) peak current amplitude.
Data processing: (1) Current values recorded for vehicle only applications in individual traps/patterns were subtracted from corresponding current amplitude values for control, test article and control+test article. (2) Control response was calculated as % of the average response of the 3rd out of total 3 ACh (10 mM) applications alone. In rare situations, if the 3rd ACh response was obscured due to technical artifacts, the 2nd and/or 1st ACh (10 mM) application was considered as control. The peak current amplitude generated in the presence of each test article concentration was then used to calculate the % inhibition as compared to control response (10 mM ACh alone). These estimates were further corrected for vehicle response and run down corrected by normalizing with time matched control responses (10 mM ACh alone). The corrected percentages were then fit with a non-linear function in GraphPad Prism 6 (or later versions) to determine the IC50.
Exclusion criteria: (i) any n's with poor recording quality, (ii) control current amplitude <500 pA or (iii) significant outliers, as determined by the Grubbs test.
ARMs compounds of Formula (I) of the invention were tested for antagonism of the nAChR in the above assay in […] experimental runs and the results are shown in Table 7 below. Antagonistic activity of the compounds of Formula (I) of the invention is reported as an IC50 value (half maximal inhibitory concentration) and the maximum percentage antagonism observed at the highest concentration of compound of Formula (I) tested, as indicated in Table 7. For compounds tested in more than one experimental run, the IC50 value is reported as an average

[3] = test system: endogenous target monocytes in human PBMC; experiment: PBMC ex vivo monocyte depletion flow cytometry assay (Example 200); assay type: cell-based; conditions: with anti-cotinine antibody (SEQ ID NO: 11/12), 18-24 hours, EC50 in molar, read-out: Ex Vivo Depletion Assay pEC50 (converted)
Outline: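 Monocyte depletion is reported as pEC50, averaged or given individually across runs, and read by flow cytometry staining CD45, CD14 and CD4 with a viability dye. Compounds, diluted four-fold over 11 points from 1 mM DMSO stocks, were combined with 30 μg/mL Fc-enhanced anti-cotinine antibody and human PBMC, then incubated 18-24 h at 37° C.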

Chain of human alpha1 nicotinic acetylcholine (nACh) receptor (P02708 21-457): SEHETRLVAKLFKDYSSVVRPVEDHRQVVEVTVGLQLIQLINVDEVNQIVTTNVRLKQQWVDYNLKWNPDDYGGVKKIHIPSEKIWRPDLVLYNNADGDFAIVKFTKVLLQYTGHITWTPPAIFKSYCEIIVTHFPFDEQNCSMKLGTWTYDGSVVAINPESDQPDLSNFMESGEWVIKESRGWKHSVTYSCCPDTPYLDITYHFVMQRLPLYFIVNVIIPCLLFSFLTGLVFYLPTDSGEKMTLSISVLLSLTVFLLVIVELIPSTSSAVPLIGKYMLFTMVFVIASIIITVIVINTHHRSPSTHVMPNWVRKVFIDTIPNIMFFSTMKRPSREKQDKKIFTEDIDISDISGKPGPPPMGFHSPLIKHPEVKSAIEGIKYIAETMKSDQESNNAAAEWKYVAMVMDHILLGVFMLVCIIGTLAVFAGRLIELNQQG
Chain of human alpha1 nicotinic acetylcholine (nACh) receptor (P11230 24-501 partner): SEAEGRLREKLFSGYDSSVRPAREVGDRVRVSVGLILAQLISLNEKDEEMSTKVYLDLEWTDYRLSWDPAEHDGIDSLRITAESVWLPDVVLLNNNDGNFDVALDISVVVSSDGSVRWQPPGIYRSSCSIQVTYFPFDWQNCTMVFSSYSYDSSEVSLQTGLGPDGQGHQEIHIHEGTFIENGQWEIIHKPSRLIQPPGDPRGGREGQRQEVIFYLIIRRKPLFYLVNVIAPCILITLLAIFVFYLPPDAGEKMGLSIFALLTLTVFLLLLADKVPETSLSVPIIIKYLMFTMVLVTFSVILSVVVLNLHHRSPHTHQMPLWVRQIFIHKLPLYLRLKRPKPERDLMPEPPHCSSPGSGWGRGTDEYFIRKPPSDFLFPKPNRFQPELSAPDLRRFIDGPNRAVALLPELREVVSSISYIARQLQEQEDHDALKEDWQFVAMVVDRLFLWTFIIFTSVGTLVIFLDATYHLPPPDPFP
Chain of human alpha1 nicotinic acetylcholine (nACh) receptor (Q07001 22-517 partner): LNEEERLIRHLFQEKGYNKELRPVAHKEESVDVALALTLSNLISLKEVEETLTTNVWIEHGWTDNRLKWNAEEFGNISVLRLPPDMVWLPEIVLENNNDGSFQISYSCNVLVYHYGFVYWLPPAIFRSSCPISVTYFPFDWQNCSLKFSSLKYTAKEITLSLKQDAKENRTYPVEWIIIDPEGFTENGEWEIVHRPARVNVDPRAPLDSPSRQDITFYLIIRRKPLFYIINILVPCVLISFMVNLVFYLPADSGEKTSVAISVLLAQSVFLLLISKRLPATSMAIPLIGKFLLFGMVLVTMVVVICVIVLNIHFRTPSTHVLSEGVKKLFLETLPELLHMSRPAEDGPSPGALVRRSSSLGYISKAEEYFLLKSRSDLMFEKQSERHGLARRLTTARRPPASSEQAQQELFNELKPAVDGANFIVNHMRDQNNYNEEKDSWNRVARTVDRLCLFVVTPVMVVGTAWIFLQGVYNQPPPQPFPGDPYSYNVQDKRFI

Row | SMILES | % Depletion of CCR2 expressing cells [1] [%] | IC50 [2] [µM] | Emax at 100 µM [2] [%] | EC50 [3] [nM] | Emax at 10 µM [2] [%]
1 | CC(C)N(C)[C@@H]1CC[C@H](N2CC[C@H](Nc3ncnc4ccc(C(F)(F)F)cc34)C2=O)[C@H](NC(=O)[C@H]2C[C@H](NC(=O)CCCO[C@H]3CC[C@H](OCCNC(=O)[C@H]4CC(=O)N(C)[C@@H]4c4cccnc4)CC3)C2)C1 [Example 8, (2S,3S)-N-(2-(((1R,4S)-4-(4-(((1R,3R)-3-(((1R,2S,5R)-5-(Isopropyl(methyl)amino)-2-((S)-2-oxo-3-((6-(trifluoromethyl)quinazolin-4-yl)amino)pyrrolidin-1-yl)cyclohexyl)carbamoyl)cyclobutyl)amino)-4-oxobutoxy)cyclohexyl)oxy)ethyl)-1-methyl-5-oxo-2-(pyridin-3-yl)pyrrolidine-3-carboxamide] | 90.3 | 47.2 | 73.1 |  | 
2 | CC(C)N(C)[C@@H]1CC[C@H](N2CC[C@H](Nc3ncnc4ccc(C(F)(F)F)cc34)C2=O)[C@H](NC(=O)[C@H]2CC[C@@H](NC(=O)CCOCCCNC(=O)CCCNC(=O)[C@H]3CC(=O)N(C)[C@@H]3c3cccnc3)CC2)C1 [Example 17, (2S,3S)-N-(4-((3-(3-(((1S,4s)-4-(((1R,2S,5R)-5-(Isopropyl(methyl)amino)-2-((S)-2-oxo-3-((6-(trifluoromethyl)quinazolin-4-yl)amino)pyrrolidin-1-yl)cyclohexyl)carbamoyl)cyclohexyl)amino)-3-oxopropoxy)propyl)amino)-4-oxobutyl)-1-methyl-5-oxo-2-(pyridin-3-yl)pyrrolidine-3-carboxamide] | 91 | ≥ 100 | 55.1 | 0.631 | 
3 | CC(C)N(C)[C@@H]1CC[C@H](N2CC[C@H](Nc3ncnc4ccc(C(F)(F)F)cc34)C2=O)[C@H](NC(=O)[C@H]2C[C@H](NC(=O)CCOCCOCCOCCNC(=O)[C@H]3CC(=O)N(C)[C@@H]3c3cccnc3)C2)C1 [Example 27, (2S,3S)-N-(2-(2-(2-(3-(((1R,3r)-3-(((1R,2S,5R)-5-(Isopropyl(methyl)amino)-2-((S)-2-oxo-3-((6-(trifluoromethyl)quinazolin-4-yl)amino)pyrrolidin-1-yl)cyclohexyl)carbamoyl)cyclobutyl)amino)-3-oxopropoxy)ethoxy)ethoxy)ethyl)-1-methyl-5-oxo-2-(pyridin-3-yl)pyrrolidine-3-carboxamide] | 80 | 93.7 | 53.8 | 10 | 
4 | CC(C)N(C)[C@@H]1CC[C@H](N2CC[C@H](Nc3ncnc4ccc(C(F)(F)F)cc34)C2=O)[C@H](NC(=O)[C@H]2C[C@@H](NC(=O)CCOCCNC(=O)CCOCCNC(=O)[C@H]3CC(=O)N(C)[C@@H]3c3cccnc3)C2)C1 [Example 44, (2S,3S)-N-(2-(3-((2-(3-(((1S,3s)-3-(((1R,2S,5R)-5-(Isopropyl(methyl)amino)-2-((S)-2-oxo-3-((6-(trifluoromethyl)quinazolin-4-yl)amino)pyrrolidin-1-yl)cyclohexyl)carbamoyl)cyclobutyl)amino)-3-oxopropoxy)ethyl)amino)-3-oxopropoxy)ethyl)-1-methyl-5-oxo-2-(pyridin-3-yl)pyrrolidine-3-carboxamide] | 91 | ≥ 100 | 51.5 | 0.631 | 
5 | CC(C)N(C)[C@@H]1CC[C@H](N2CC[C@H](Nc3ncnc4ccc(C(F)(F)F)cc34)C2=O)[C@H](NC(=O)c2ccc(C3CCN(CCOCCOCCNC(=O)[C@H]4CC(=O)N(C)[C@@H]4c4cccnc4)CC3)cn2)C1 [Example 94, N-((1R,2S,5R)-5-(Isopropyl(methyl)amino)-2-((S)-2-oxo-3-((6-(trifluoromethyl)quinazolin-4-yl)amino)pyrrolidin-1-yl)cyclohexyl)-5-(1-(2-(2-(2-((2S,3S)-1-methyl-5-oxo-2-(pyridin-3-yl)pyrrolidine-3-carboxamido)ethoxy)ethoxy)ethyl)piperidin-4-yl)picolinamide] | 88.66 | 4.66 |  | 2 | 67.1
6 | CC(C)N(C)[C@@H]1CC[C@H](N2CC[C@H](Nc3ncnc4ccc(C(F)(F)F)cc34)C2=O)[C@H](NC(=O)c2ccc(N3CCC(C(=O)NCCOCCOCCNC(=O)[C@H]4CC(=O)N(C)[C@@H]4c4cccnc4)CC3)cc2)C1 [Example 130, 1-(4-(((1R,2S,5R)-5-(Isopropyl(methyl)amino)-2-((S)-2-oxo-3-((6-(trifluoromethyl)quinazolin-4-yl)amino)pyrrolidin-1-yl)cyclohexyl)carbamoyl)phenyl)-N-(2-(2-(2-((2S,3S)-1-methyl-5-oxo-2-(pyridin-3-yl)pyrrolidine-3-carboxamido)ethoxy)ethoxy)ethyl)piperidine-4-carboxamide] | 81.81 | ≥ 10 |  | 0.631 | 16.8
7 | CC(C)N(C)[C@@H]1CC[C@H](N2CC[C@H](Nc3ncnc4ccc(C(F)(F)F)cc34)C2=O)[C@H](NC(=O)[C@H]2CC[C@H](c3ccc(C(=O)NCCOCCOCCNC(=O)[C@H]4CC(=O)N(C)[C@@H]4c4cccnc4)cc3)CC2)C1 [Example 140, (2S,3S)-N-(2-(2-(2-(4-((1R,4r)-4-(((1R,2S,5R)-5-(Isopropyl(methyl)amino)-2-((S)-2-oxo-3-((6-(trifluoromethyl)quinazolin-4-yl)amino)pyrrolidin-1-yl)cyclohexyl)carbamoyl)cyclohexyl)benzamido)ethoxy)ethoxy)ethyl)-1-methyl-5-oxo-2-(pyridin-3-yl)pyrrolidine-3-carboxamide] | 89.13 | ≥ 10 |  | 0.398 | 18.2
8 | CC(C)N(C)[C@@H]1CC[C@H](N2CC[C@H](Nc3ncnc4ccc(C(F)(F)F)cc34)C2=O)[C@H](NC(=O)CCOCCOCCO[C@H]2CC[C@H](OCCNC(=O)[C@H]3CC(=O)N(C)[C@@H]3c3cccnc3)CC2)C1 [Example 192, (2S,3S)-N-(2-(((1R,4S)-4-(2-(2-(3-(((1R,2S,5R)-5-(Isopropyl(methyl)amino)-2-((S)-2-oxo-3-((6-(trifluoromethyl)quinazolin-4-yl)amino)pyrrolidin-1-yl)cyclohexyl)amino)-3-oxopropoxy)ethoxy)ethoxy)cyclohexyl)oxy)ethyl)-1-methyl-5-oxo-2-(pyridin-3-yl)pyrrolidine-3-carboxamide] | 84.8 | 74.3 | 53 |  | 
